From paper PMC5744864, “Indole and Benzimidazole Bichalcophenes: Synthesis, DNA Binding and Antiparasitic Activity” (European Journal of Medicinal Chemistry, 2018)
Counter-ions that a name gives are not always drawn. Like-named read-outs stand apart in the source and are kept apart here.

How the values were obtained:
poly(dA-dT)n = test: Thermal melting (ΔTm) of poly(dA-dT) DNA; assay type: binding; details: ratio 0.3 mol compound per mole of DNA; CAC 10 buffer pH 7.0
Experimental: Thermal melting experiments were performed with a Cary 300 spectrophotometer. Cuvettes were mounted in a thermal block where the solution temperatures were mesaured with a thermistor in the reference cuvette. Temperatures were maintained under computer control and increased at 0.5 °C/min. The experiments were performed in 1 cm path length quartz cuvettes in CAC 10 buffer (cacodylic acid 10 mM, EDTA 1 mM, NaCl 100 mM with NaOH added to give pH = 7.0). Poly (dA-dT) DNA concentrations were determined by measuring its absorbance at 260 nm. A ratio of 0.3 mol compound per mole of DNA was used for the complex and DNA alone was used as control. ΔTm values were determined from the peak of first derivative curves (dA/dT).

[1] = Cytotoxicity in L6 rat myoblast cells; assay type: cell-based; details: cultured L6 rat myoblast cells; read-out: Cytotox. IC50 (L6)
Experimental: (§1) The in vitro viability assays were with the T. b. r. strain STIB 900 and the chloroquine resistant P. f. strain K1. The efficacy studies were with the STIB900 acute mouse model for T. b. r. infections. Dosage was 4 × 5 mg/kg i.p. performed as previously described in detail. Cytotoxicity was evaluated in L6 rat myoblast cells as previously reported in detail.

[2] = tested on: T. b. rhodesiense (STIB900) infected mice; test: STIB900 acute mouse model for T. b. r. infections; assay type: in vivo; details: 4 × 5 mg/kg i.p.; for In vivo (cures), cured/infected mice: T. b. rhodesiense (STIB900) infected mice; for In vivo cure of infected mice (in words): T. b. rhodesiense infected mice
Experimental: The excellent in vitro activity and selectivity of the indole bichalcophenes diamidines (4a-d) encouraged us to test them in vivo in the rigorous T. b. r. STIB900 mouse model (Table 1) for the acute hemolymphatic stage of the African trypanosomiasis. The dosage applied was low with a daily intraperitoneal (i.p.) dose of 5 mg/kg compound for four consecutive days.
as §1

[3] = tested on: P. f. (Plasmodium falciparum) strain K1; test: In vitro viability assay, chloroquine resistant P. f. strain K1; assay type: cell-based; details: for IC50: Plasmodium falciparum; for SI/P.f, Selectivity Index IC50 (L6)/IC50 (P.f.): ratio L6 versus P. f. K1
Experimental: as §1

Poly(dA).Poly(dT) = test: Circular dichroism titration with Poly(dA).Poly(dT); assay type: binding; details: 20 μM Poly(dA).Poly(dT), 10 mM MES, 100 mM NaCl, 1 mM EDTA, 25 °C
Experimental: Fig. 2 Circular dichroism spectra of the titration of representative compounds, (4a, 4d, 8a, 8b, 8c) with a 20 μM Poly(dA).Poly(dT) sequence in the buffer (10 mM MES, 100 mM NaCl, 1 mM EDTA, at pH, 7.4) at 25 °C.
CD spectra were collected employing a Jasco J-810 spectrometer at 25 °C using different ratios of compound to DNA at 25 °C in MES 10 buffer (10 mM MES, 100 mM NaCl, I mM EDTA).First, a DNA solution in a 1-cm quartz cuvette was scanned over the desired wavelength range. Tested compounds at increasing ratios, were titrated into the same cuvette and the complexes rescanned under the same conditions.

[4] = tested on: T. b. r. (Trypanosoma brucei rhodesiense) STIB900; test: In vitro viability assay, T. b. r. strain STIB900; assay type: cell-based; details: for IC50: Trypanosoma brucei, read-out: T. b. r. IC50; for SI/T. b. r., Selectivity Index IC50 (L6)/IC50 (T b.r.): ratio L6 versus T. b. r. STIB900
Experimental: as §1

[5] = tested on: T. b. rhodesiense (STIB900) infected mice; design: method as in PMID 23959303; details: 5 mg/kg i.p. daily for four consecutive days; cited from earlier work
[6] = strain STIB900, average of duplicate determinations

Row | SMILES | melting point [°C] | ΔTm, thermal melting increase of poly(dA-dT)n (poly(dA-dT)n) | IC50 [1] [nM] | Induced CD signal on binding (minor groove binding) (Poly(dA).Poly(dT)) | SI/T. b. r., Selectivity Index IC50 (L6)/IC50 (T b.r.) [4] | also measured
1 | N=C(N)c1ccc2cc(-c3ccc(-c4ccc(C(=N)N)o4)o3)[nH]c2c1 (as salt: hydrochloride) [Compound 4a, 2-(5′-Amidino-2,2′-bifuran-5-yl)-1H-indole-6-amidine hydrochloride salt] | > 300 |  |  |  |  | 
2 | N=C(N)c1ccc2cc(-c3ccc(-c4ccc(C(=N)N)s4)o3)[nH]c2c1 (as salt: hydrochloride) [Compound 4b, 2-(5-(5-Amidinothiophen-2-yl)furan-2-yl)-1H-indole-6-amidine hydrochloride salt] | > 300 |  |  |  |  | 
3 | N=C(N)c1ccc2cc(-c3ccc(-c4ccc(C(=N)N)o4)s3)[nH]c2c1 (as salt: hydrochloride) [Compound 4c, 2-(5-(5-Amidinofuran-2-yl)thiophen-2-yl)-1H-indole-6-amidine hydrochloride salt] | > 300 |  |  |  |  | 
4 | N=C(N)c1ccc2cc(-c3ccc(-c4ccc(C(=N)N)s4)s3)[nH]c2c1 (as salt: hydrochloride) [Compound 4d, 2-(5′-Amidino-2,2′-bithiophen-5-yl)-1H-indole-6-amidine hydrochloride salt] | > 300 |  |  |  |  | 
5 | N=C(N)c1ccc2nc(-c3ccc(-c4ccc(C(=N)N)o4)o3)[nH]c2c1 (as salt: hydrochloride) [Compound 8a, 2-(5′-Amidino-2,2′-bifuran-5-yl)-1H-benzimidazole-5(6)-amidine hydrochloride salt] | > 300 |  |  |  |  | 
6 | N=C(N)c1ccc2nc(-c3ccc(-c4ccc(C(=N)N)s4)o3)[nH]c2c1 (as salt: hydrochloride) [Compound 8b, 2-(5-(5-Amidinothiophen-2-yl)furan-2-yl)-1H-benzimidazole-5(6)-amidine hydrochloride salt] | > 300 |  |  |  |  | 
7 | N=C(N)c1ccc2nc(-c3ccc(-c4ccc(C(=N)N)s4)s3)[nH]c2c1 (as salt: hydrochloride) [Compound 8c, 2-(5′-Amidino-2,2′-bithiophen-5-yl)-1H-benzimidazole-5(6)-amidine hydrochloride salt] | > 300 |  |  |  |  | 
8 | N=C(N)c1ccc2cc(-c3ccc(-c4ccc(C(=N)N)o4)o3)[nH]c2c1 [Compound 4a, 2-(5′-Amidino-2,2′-bifuran-5-yl)-1H-indole-6-amidine hydrochloride salt] |  | 28 ^oC | 16500 | very strong induced CD signals | 1100 | In vivo (cures), cured/infected mice [2]: 0/4; IC50 ([3]; K1, read-out: P.f. IC50): 2.9 nM; IC50 [4]: 15 nM
9 | N=C(N)c1ccc2cc(-c3ccc(-c4ccc(C(=N)N)s4)o3)[nH]c2c1 [Compound 4b, 2-(5-(5-Amidinothiophen-2-yl)furan-2-yl)-1H-indole-6-amidine hydrochloride salt] |  | >30 ^oC | 15700 |  | 1046 | In vivo (cures), cured/infected mice [2]: 0/4; IC50 ([3]; K1, read-out: P.f. IC50): 7.3 nM; SI/P.f, Selectivity Index IC50 (L6)/IC50 (P.f.) [3]: 2150; IC50 [4]: 15 nM
10 | N=C(N)c1ccc2cc(-c3ccc(-c4ccc(C(=N)N)o4)s3)[nH]c2c1 [Compound 4c, 2-(5-(5-Amidinofuran-2-yl)thiophen-2-yl)-1H-indole-6-amidine hydrochloride salt] |  | 28 ^oC | 17600 |  | 4400 | Sterile cures in mice infected with T. b. r. ([2]; STIB900 mouse model): 100%; In vivo (cures), cured/infected mice [2]: 4/4; In vivo cure of infected mice (in words) [2]: curing all T. b. r. infected mice; IC50 ([3]; K1, read-out: P.f. IC50): 6.8 nM; SI/P.f, Selectivity Index IC50 (L6)/IC50 (P.f.) [3]: 2588; IC50 [4]: 4 nM
11 | N=C(N)c1ccc2cc(-c3ccc(-c4ccc(C(=N)N)s4)s3)[nH]c2c1 [Compound 4d, 2-(5′-Amidino-2,2′-bithiophen-5-yl)-1H-indole-6-amidine hydrochloride salt] |  | >30 ^oC | 11600 | very strong induced CD signals | 5800 | In vivo (cures), cured/infected mice [2]: 0/4; IC50 ([3]; K1, read-out: P.f. IC50): 6.8 nM; SI/P.f, Selectivity Index IC50 (L6)/IC50 (P.f.) [3]: 1705; IC50 [4]: 2 nM
12 | N#Cc1ccc2nc(-c3ccc(-c4ccc(C#N)s4)s3)[nH]c2c1 [Compound 7c, 2-(5′-Cyano-2,2′-bithiophen-5-yl)-1H-benzimidazole-5(6)-carbonitrile] | > 300 |  |  |  |  | In vivo cure of infected mice (in words) [2]: cured all mice
13 | N=C(N)c1ccc2nc(-c3ccc(-c4ccc(C(=N)N)o4)o3)[nH]c2c1 [Compound 8a, 2-(5′-Amidino-2,2′-bifuran-5-yl)-1H-benzimidazole-5(6)-amidine hydrochloride salt] |  | 29 ^oC | 41800 | very strong induced CD signals | 409 | IC50 ([3]; chloroquine resistant strain K1, average of duplicate determinations, read-out: P.f. IC50): 91.9 nM; SI/P.f, Selectivity Index IC50 (L6)/IC50 (P.f.) [3]: 454; IC50 [4, 6]: 102 nM
14 | N=C(N)c1ccc2nc(-c3ccc(-c4ccc(C(=N)N)s4)o3)[nH]c2c1 [Compound 8b, 2-(5-(5-Amidinothiophen-2-yl)furan-2-yl)-1H-benzimidazole-5(6)-amidine hydrochloride salt] |  | 27 ^oC | 15000 | very strong induced CD signals | 234 | IC50 [4, 6]: 64 nM
15 | N=C(N)c1ccc2nc(-c3ccc(-c4ccc(C(=N)N)s4)s3)[nH]c2c1 [Compound 8c, 2-(5′-Amidino-2,2′-bithiophen-5-yl)-1H-benzimidazole-5(6)-amidine hydrochloride salt] |  | >30 ^oC | 26200 | very strong induced CD signals | 1048 | IC50 [4, 6]: 25 nM
16 | N=C(N)c1ccc(OCCCCCOc2ccc(C(=N)N)cc2)cc1 [pentamidine, Pentamidine] |  |  |  |  |  | In vivo (cures), cured/infected mice [5]: 1/4
